Results: patent US11324725B2, “Compositions and methods for the inhibition of pruritus” (The United States of America, as represented by the …, priority 2017, dated 2022)

Target: T1, mNpr1 (Mus musculus, UniProt P18293)
T1 construct: host or cells: HEK-293, transient co-transfection with pGS-40F
T1 sequence (P18293 29-1057): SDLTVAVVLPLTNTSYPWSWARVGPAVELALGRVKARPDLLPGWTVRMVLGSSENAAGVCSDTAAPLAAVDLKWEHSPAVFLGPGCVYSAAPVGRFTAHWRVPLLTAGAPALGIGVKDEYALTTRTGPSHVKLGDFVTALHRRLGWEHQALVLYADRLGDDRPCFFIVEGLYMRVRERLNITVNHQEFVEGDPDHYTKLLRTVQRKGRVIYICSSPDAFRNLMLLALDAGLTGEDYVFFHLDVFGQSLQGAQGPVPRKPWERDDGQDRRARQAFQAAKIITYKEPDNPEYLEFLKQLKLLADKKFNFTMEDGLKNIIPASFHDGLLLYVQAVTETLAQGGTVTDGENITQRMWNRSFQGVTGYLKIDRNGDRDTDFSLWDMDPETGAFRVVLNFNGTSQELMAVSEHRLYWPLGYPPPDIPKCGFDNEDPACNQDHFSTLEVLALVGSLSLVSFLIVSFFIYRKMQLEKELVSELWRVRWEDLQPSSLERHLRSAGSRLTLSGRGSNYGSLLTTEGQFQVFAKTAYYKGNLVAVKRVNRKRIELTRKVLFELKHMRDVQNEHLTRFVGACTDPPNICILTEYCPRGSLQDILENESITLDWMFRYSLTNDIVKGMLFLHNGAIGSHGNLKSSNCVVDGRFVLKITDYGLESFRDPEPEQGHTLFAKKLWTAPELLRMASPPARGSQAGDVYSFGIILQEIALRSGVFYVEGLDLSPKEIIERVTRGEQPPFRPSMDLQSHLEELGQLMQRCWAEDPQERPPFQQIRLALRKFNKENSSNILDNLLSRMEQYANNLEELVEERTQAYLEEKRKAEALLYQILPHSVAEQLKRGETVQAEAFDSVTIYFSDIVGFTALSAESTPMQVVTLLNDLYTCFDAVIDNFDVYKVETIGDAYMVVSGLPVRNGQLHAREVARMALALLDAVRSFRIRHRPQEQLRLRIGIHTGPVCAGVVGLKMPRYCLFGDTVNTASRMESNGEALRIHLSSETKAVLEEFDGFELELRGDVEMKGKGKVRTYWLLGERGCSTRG
Test: GloSensor assay, HEK-293 cells transiently expressing mNpr1 and pGS-40F
Assay type: cell-based
Conditions: for IC50: 1 nM mNppb 5 minutes after compound, read-out: IC50 [μM] (mean ± SEM), mNpr1; for Ki: calculated with Cheng-Prusoff equation from Table 6, read-out: Ki mNpr1 GloSensor™ [μM] (mean ± SEM)
Description: HEK-293 cells (American Type Culture Collection “ATTC,” Manassas, Va.) were cultured in DMEM/F12 supplemented with 2 mM L-glutamine, 10% FBS, 100 U/ml penicillin, and 100 μg/ml streptomycin. For transient expression, 8×10^5 cells were seeded in 6-wells, cultured for 24 hours, and then transfected using TransIT®-293 (Mirus, Madison, Wis.) according to the manufacturer's instructions. After transfection (48 hours), cells were used to measure intracellular cGMP production. HEK-293 cell clones stably expressing pGloSensor™-40F alone (HEK-cGMP-sensor cells) or in addition, human Npr1 (“hNpr1”) (HEK-hNpr1-cGMP-sensor cells) or human Npr2 (HEK-hNpr2-cGMP-sensor cells) were generated by co-transfection with pEAK8-GFP and selection with 1 μg/ml puromycin. Stable expression of transgenes was verified by measuring ligand-induced cGMP production with the cGMP biosensor.
Before the measurement (24 hours in advance), 3×10^4 cells were seeded into white 96-well plates (PerkinElmer, Waltham, Mass.), coated with 0.1% poly(D-lysine), and assays conducted as recommended by the manufacturer (Promega). Medium was aspirated and cells were loaded for two hours at room temperature with 2% GoSensor™ reagent diluted in CO2-independent media (ThermoFisher) supplemented with 2 mM L-glutamine and 10% FBS (assay medium). Luminescence was measured on a BioTek Synergy™ NEO (Winooski, Vt.) plate reader at room temperature. After a baseline measurement of 3-5 minutes, assay medium as a control or assay medium with agonist was manually added, and luminescence was measured for 30 minutes at ˜ 1/60 Hz. For compounds tested for Npr1 and Npr2 inhibition, the compounds were added after baseline measurements, and luminescence was read for 5 minutes before addition of agonist. Luminescence was then normalized to baseline measurements and plotted against the time. Ligand-induced changes of cGMP production were quantified by determining the area under the curve. To determine efficacy and potency of agonists, ligand-induced changes were normalized to medium only addition and plotted against the ligand concentration. […] To quantify […] of compounds, compound-induced changes of agonist-induced cGMP production were normalized to vehicle controls, plotted against compound concentration, and fit with a four-parameter logistic regression. Effects of A-71915 on basal mNpr1 activity were fitted with a bell-shaped regression (equation indicated below).
Because the Npr1 receptor is a ligand-dependent guanylate cyclase, measuring agonist-induced changes in intracellular cGMP levels was used to examine inhibition of Npr1. To measure the production of cGMP by Npr1, a circular permutated Firefly luciferase molecule which was functionally linked to the cGMP binding domain of human PDE5 (GloSensor™ technology pGS-40F) was used, as described in Example 1. This reporter molecule together with a luciferase substrate (GoSensor™ reagent) and a sensitive method for detection of luciferase activity (emitted light) permitted real-time measurement of cGMP levels in live cells (FIG. 1A). The cGMP sensor was expressed in HEK293 cells and luciferase activity after stimulation with the NO-donor sodium nitroprusside (SNP), which activates ubiquitously expressed soluble guanylate cyclases, was examined. […] Next, mNpr1 and the cGMP sensor were transiently expressed in HEK293 cells and agonist dependent receptor activation was examined. […] Next, the effects of A-71915 on mNpr1 were tested.
For Table 6, HEK-293 cells transiently expressing mNpr1 and pGS-40F were stimulated with 1 nM mNppb 5 minutes after addition of candidate compounds or A-71915 and luminescence was measured for 30 minutes. Inhibitors were titrated to calculate apparent IC50 values, as described in methods.

| Compound | IC50 | Ki |
| --- | --- | --- |
| Cc1nn2c(c1-c1ccccc1OCc1ccccc1)N(C(=O)Cc1ccc3c(c1)OCO3)CCC2 [JS-8, 2-(benzo[d][1,3]dioxol-5-yl)-1-(3-(2-(benzyloxy)phenyl)-2-methyl-6,7-dihydropyrazolo[1,5-a]pyrimidin-4(5H)-yl)ethan-1-one] | 4.7 ± 0.3 µM | 0.1 ± 0.006 µM |
| Cc1noc(C)c1-c1cc(-c2ccccc2Oc2ccccc2)cn2cncc12 [JS-5, 3,5-dimethyl-4-(6-(2-phenoxyphenyl)imidazo[1,5-a]pyridin-8-yl)isoxazole] | 20 ± 12 µM | 0.42 ± 0.265 µM |
| Cc1nn2c(c1-c1ccccc1OCc1ccccc1)N(C(=O)Cc1ccccn1)CCC2 [JS-9, 1-(3-(2-(benzyloxy)phenyl)-2-methyl-6,7-dihydropyrazolo[1,5-a]pyrimidin-4(5H)-yl)-2-(pyridin-2-yl)ethan-1-one] | 28 µM | 0.57 ± 0.0004 µM |
| CN(Cc1ccccc1)C(=O)c1cn2ccnc(-c3ccccc3)c2n1 [JS-14, N-benzyl-N-methyl-8-phenylimidazo[1,2-a]pyrazine-2-carboxamide] | 15.8 ± 16 µM | 0.32 ± 0.329 µM |
| COc1ccc(C2(C(=O)N3CCC4(CC3)c3nccn3-c3ccccc3CN4C)CC2)cc1 [JS-12, (1-(4-methoxyphenyl)cyclopropyl)(5-methyl-5,6-dihydrospiro[benzo[f]imidazo[1,2-a][1,4]diazepine-4,4′-piperidin]-1′-yl)methanone] | 13 ± 0.3 µM | 0.26 ± 0.006 µM |
| Cc1nn2c(c1-c1ccccc1Oc1ccccc1)N(C(=O)Cc1ccc3c(c1)OCO3)CCC2 [JS-10, 2-(benzo[d][1,3]dioxol-5-yl)-1-(2-methyl-3-(2-phenoxyphenyl)-6,7-dihydropyrazolo[1,5-a]pyrimidin-4(5H)-yl)ethan-1-one] | 15 ± 1.8 µM | 0.31 ± 0.037 µM |
| COc1ccccc1-c1n[nH]c2ncc(C(=O)NCc3cccnc3)nc12 [JS-6, 3-(2-methoxyphenyl)-N-(pyridin-3-ylmethyl)-1H-pyrazolo[3,4-b]pyrazine-5-carboxamide] | 82 ± 68 µM | 1.69 ± 1.39 µM |
| Cc1cc(CNC(=O)c2ccc3c(c2)n(CC2CC2)c(=O)n3C2CCCCC2)on1 [JS-11, 1-cyclohexyl-3-(cyclopropylmethyl)-N-((3-methylisoxazol-5-yl)methyl)-2-oxo-2,3-dihydro-1H-benzo[d]imidazole-5-carboxamide] | 4.9 ± 1.5 µM | 0.1 ± 0.03 µM |
| N#Cc1ccccc1CN1CCCC(C(=O)NCc2ccccc2)CCNC(=O)CC1 (stereo not shown) [JS-13, N-benzyl-1-(2-cyanobenzyl)-4-oxo-1,5-diazacycloundecane-8-carboxamide] | 10 ± 2.2 µM | 0.21 ± 0.046 µM |
| COc1cc(CN2CCC(C)(NC(C)=O)CC2)cc(-c2ccncc2)c1 [JS-4, N-(1-(3-methoxy-5-(pyridin-4-yl)benzyl)-4-methylpiperidin-4-yl)acetamide] | 11 ± 3.4 µM | 0.22 ± 0.07 µM |
| CCC(CC)c1cc([C@H]2CN3CC[C@H]2C[C@@H]3CNS(=O)(=O)c2cccs2)nc(-c2ccncc2)n1 [JS-3, N-(((2R,4S,5R)-5-(6-(pentan-3-yl)-2-(pyridin-4-yl)pyrimidin-4-yl)quinuclidin-2-yl)methyl)thiophene-2-sulfonamide] | 12 ± 1.8 µM | 0.25 ± 0.036 µM |
